# Measurements published in paper PMC10786919, “Design-rules for stapled peptides with in vivo activity and their application to Mdm2/X antagonists” (Nature Communications, 2024).
# Read-outs that look alike come from different tables or passages of the source. Positions of bridges follow the written chain, without caps; N, C: chain ends. Non-standard residues stand in square brackets, D forms with d. Residues, ends and D or L forms follow the SMILES beside them. Lys(N3) = [N-]=[N+]=NCCCC[C@H](N)C(=O)O; 2Nal = N[C@@H](Cc1ccc2ccccc2c1)C(=O)O; R8 = C=CCCCCCC[C@@](C)(N)C(=O)O; Cba = N[C@@H](CC1CCC1)C(=O)O; S5 = C=CCCC[C@](C)(N)C(=O)O; Ahx = NCCCCCC(=O)O; βAla = NCCC(=O)O
# Experiments:
# human Mdm2 1–125 = target: T1, human Mdm2 1–125 (Homo sapiens, UniProt Q00987); assay: Mdm2 binding by competitive fluorescence anisotropy assay (FP binding); conditions: read-out: FP binding assay KD
# T1 construct: GST (N); His6 (internal); TEV cleavage site (ENLYFQG) (internal); made in house; host or cells: BL21 (DE3) Rosetta T1R Escherichia coli
# Description: The TEV (tobacco etch virus) cleavage site was changed from ENLYFQS to ENLYFQG to give a fusion protein with the following sequence:
# [P] is the protein concentration (Mdm2), [L] is the labeled peptide concentration, r is the anisotropy measured, r0 is the anisotropy of the free peptide, rb is the anisotropy of the Mdm2–FAM-labeled peptide complex, Kd is the dissociation constant, [L]t is the total FAM labeled peptide concentration, and [P]t is the total Mdm2 concentration. […] This value was then used to determine apparent Kd values of the respective competing ligands in subsequent competition assays in fluorescence anisotropy experiments.
# The competing molecules were then titrated against the complex of the FAM-labeled peptide and protein. Apparent Kd values were determined by fitting the experimental data to equations shown below:2 r=ro+(rb−ro)×2(d^2−3e)cos(θ/3)−9/3Kd1+2(d^2−3e)cos(θ/3)−d 3 d=Kd1+Kd2+[L]st+[L]t−Pt 4 e=Lt−PtKd1+Lst+PtKd2+Kd1Kd2 5 f=−Kd1Kd2[P]t 6 θ=arcos−2d^3+9de−27f/2(d^2−3e)^3
# [L]st and [L]t denote labeled ligand and total unlabeled ligand input concentrations, respectively. Kd2 is the dissociation constant of the interaction between the unlabeled ligand and the protein. In all competition experiments, it is assumed that [P]t > [L]st, otherwise considerable amounts of free labeled ligand would always be present and would interfere with measurements. […] The FAM-labeled peptide was dissolved in dimethyl sulfoxide (DMSO) at 1 mM and diluted into experimental buffer. Readings were carried out with an Envision Multilabel Reader (PerkinElmer). […] Curve-fitting was carried out using Prism 4.0 (GraphPad). […] Negative control titrations of the ligands under investigation were also carried out with the fluorescently labeled peptide (in the absence of Mdm2) to ensure no interactions were occurring between the ligands and the FAM-labeled peptide. […] Measurements were taken a minimum of three times (biological replicates) and values are reported as geometric means of the replicates.
# [1] = Lactate dehydrogenase (LDH) release assay; type: cell-based
# Summary of the method: (§1)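 HCT116 cells stably carrying a p53-responsive β-lactamase reporter, seeded at 8000 cells/well, exposed to compound with 0.5% final DMSO. LDH release read with the CytoTox-ONE membrane integrity kit. Values are geometric means of at least three biological replicates.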
# HCT116 cells = assay: Lactate dehydrogenase (LDH) release assay; type: cell-based
# Summary of the method: as §1
# [2] = system: Jump-In T-REx CHO-K1 BLA cells; assay: cells; type: cell-based; conditions: for EC50: read-out: TETCHO: Counterscreen EC50
# [3] = system: p53 responsive β-lactamase reporter in HCT116 cells; assay: cells; type: cell-based; conditions: read-out: p53 reporter assay EC50
# Summary of the method: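 Read-out used the ToxBLAzer Dual Screen for β-lactamase driven by a stably integrated p53-responsive reporter. Assay: 8000 HCT116 cells per well at 0.5% final DMSO. Reported numbers are geometric means over a minimum of three biological replicates.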
# [4] = Solubility assay (kinetic solubility, PBS pH 7); type: physicochemical
# Summary of the method: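 Values derive from peak-area ratios of sample versus a 100 µM standard, scaled by that standard's concentration.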
# in vitro = conditions: Nanoclick permeability assay EC50
# Summary of the method: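 Azido-peptide permeability was read as loss of NanoBRET signal (donor 450 nm, acceptor 610 nm) after adding NanoBret618-azide at 10 μM final.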
# EPSA = type: physicochemical; conditions: EPSA
# [5] = Experimental LogD (partition coefficient)
# [6] = system: CellSensor p53RE-bla HCT-116 Cell Line; conditions: 72 h
# Summary of the method: (§2)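 Compound dilution series (10 points, 3-fold, 10 mM top stock in DMSO) tested on overnight-plated Ca Ski cells in RPMI1640/10% FBS and on blasticidin-selected p53RE-bla HCT-116 cells in McCoy's 5A; read-out was CellTiter-Glo 2.0 luminescence after room-temperature equilibration.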
# Ca Ski cell line = conditions: 72 h
# Summary of the method: as §2
# T1 sequence (Q00987 with tags, fused parts or gaps): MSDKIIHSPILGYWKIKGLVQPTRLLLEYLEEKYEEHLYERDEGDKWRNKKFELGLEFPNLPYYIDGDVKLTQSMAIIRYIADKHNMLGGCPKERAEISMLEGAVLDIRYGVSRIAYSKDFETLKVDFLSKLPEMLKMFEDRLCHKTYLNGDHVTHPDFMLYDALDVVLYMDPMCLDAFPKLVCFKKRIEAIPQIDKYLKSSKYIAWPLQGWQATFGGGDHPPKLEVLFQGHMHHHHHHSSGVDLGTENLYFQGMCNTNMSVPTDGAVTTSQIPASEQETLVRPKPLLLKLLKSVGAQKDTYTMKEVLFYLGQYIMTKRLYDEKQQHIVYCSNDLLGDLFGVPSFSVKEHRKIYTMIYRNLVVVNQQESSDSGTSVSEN
Structure (SMILES),Kd (human Mdm2 1–125),EC50 ([1]; LDH: Cytotoxicity assay EC50),LDH: Cytotoxicity assay % Effect (HCT116 cells),TETCHO: Counterscreen % Effect ([2]; 0% FBS 4Hr),EC50 ([2]; 0% FBS 4Hr),EC50 ([3]; 0% FBS 4Hr),TETCHO: Counterscreen % Effect ([2]; 0% FBS 16Hr),EC50 ([3]; 0% FBS 16Hr),Solubility [4],"Solubility ([4]; pH 7, PBS)",EC50 ([1]; LDH: Cytotoxicity assay: EC50),cell entry EC50 (in vitro),EPSA (EPSA),Partition Coeff LogD [5],EC50 [6],EC50 (Ca Ski cell line),"solubility kinetic ([4]; pH 7, aqueous buffer, kinetic from dmso stock, pH 7, PBS, read-out: Solubility)","logD ([5]; not stated, Partition Coeff LogD)"
CC(=O)N[C@H](C(=O)N[C@@H](CO)C(=O)N[C@@H](Cc1ccccc1)C(=O)N[C@]1(C)CCCCCCC=CCCC[C@@](C)(C(N)=O)NC(=O)[C@H](CC(C)C)NC(=O)[C@H](CC(C)C)NC(=O)[C@H](C)NC(=O)[C@H](Cc2c[nH]c3ccccc23)NC(=O)[C@H](Cc2ccc(O)cc2)NC(=O)[C@H](Cc2c[nH]cn2)NC1=O)[C@@H](C)O [MP-138] (Ac-TSF[R8]HYWALL[S5]-NH2; staple 4-11),0.0879 µM,> 50 µM,0.2053%,24.03%,> 50 µM,4.9 µM,,,,,,,,,,,,
CC(=O)N[C@H](C(=O)N[C@@H](CO)C(=O)N[C@@H](Cc1ccc2ccccc2c1)C(=O)N[C@]1(C)CCCCCCC=CCCC[C@@](C)(C(=O)N[C@@H](CCC(=O)O)C(N)=O)NC(=O)[C@H](CC(C)C)NC(=O)[C@H](CC(C)C)NC(=O)[C@H](C)NC(=O)[C@H](Cc2c[nH]c3ccccc23)NC(=O)[C@H](Cc2ccc(O)cc2)NC(=O)[C@H](CCC(=O)O)NC1=O)[C@@H](C)O [MP-146] (Ac-TS[2Nal][R8]EYWALL[S5]E-NH2; staple 4-11),0.499 µM,> 50 µM,16.49%,1.205%,> 50 µM,43.3 µM,,,,,,,,,,,,
CC(=O)N[C@H](C(=O)N[C@@H](CO)C(=O)N[C@@H](Cc1ccccc1)C(=O)N[C@]1(C)CCCCCCC=CCCC[C@@](C)(C(=O)N[C@@H](CCC(=O)O)C(N)=O)NC(=O)[C@H](CC(C)C)NC(=O)[C@H](CC(C)C)NC(=O)[C@H](C)NC(=O)[C@H](Cc2c[nH]c3ccccc23)NC(=O)[C@H](Cc2ccc(O)cc2)NC(=O)[C@H](CCC(=O)O)NC1=O)[C@@H](C)O [MP-139],< 0.001 µM,38.8 µM,20.87%,1.538%,> 50 µM,6.25 µM,,,,,,,,,,,,
CC(=O)N[C@@H](CCCCN)C(=O)N[C@@H](CCCCN)C(=O)N[C@H](C(=O)N[C@@H](CO)C(=O)N[C@@H](Cc1ccccc1)C(=O)N[C@]1(C)CCCCCCC=CCCC[C@@](C)(C(N)=O)NC(=O)[C@H](CC(C)C)NC(=O)[C@H](CC(C)C)NC(=O)[C@H](C)NC(=O)[C@H](Cc2c[nH]c3ccccc23)NC(=O)[C@H](Cc2ccc(O)cc2)NC(=O)[C@H](CCC(=O)O)NC1=O)[C@@H](C)O [MP-142],0.0422 µM,46.7 µM,72.79%,22.09%,20.2 µM,15.2 µM,,,,,,,,,,,,
CC(=O)N[C@@H](CCCCN)C(=O)N[C@@H](CCCCN)C(=O)N[C@@H](CCCCN)C(=O)NCCCCCC(=O)N[C@H](C(=O)N[C@@H](CO)C(=O)N[C@@H](Cc1ccccc1)C(=O)N[C@]1(C)CCCCCCC=CCCC[C@@](C)(C(=O)N[C@@H](CCC(=O)O)C(=O)N[C@@H](CC(N)=O)C(=O)N[C@@H](Cc2ccccc2)C(N)=O)NC(=O)[C@H](CC(C)C)NC(=O)[C@H](CC(C)C)NC(=O)[C@H](C)NC(=O)[C@H](Cc2c[nH]c3ccccc23)NC(=O)[C@H](Cc2ccc(O)cc2)NC(=O)[C@H](CCC(=O)O)NC1=O)[C@@H](C)O [MP-5364] (Ac-KKK[Ahx]TSF[R8]EYWALL[S5]ENF-NH2; staple 8-15),0.0391 µM,> 50 µM,,62.33%,31.9 µM,2.55 µM,3.12%,4.96 µM,,,,,,,,,,
CC(=O)N[C@H](C(=O)N[C@@H](CO)C(=O)N[C@@H](Cc1ccc2ccccc2c1)C(=O)N[C@]1(C)CCCCCCC=CCCC[C@@](C)(C(=O)N[C@@H](CO)C(=O)N[C@@H](C)C(=O)N[C@@H](C)C(=O)N[C@@H](CCC(=O)O)C(N)=O)NC(=O)[C@H](CC(C)C)NC(=O)[C@H](CC(C)C)NC(=O)[C@H](C)NC(=O)[C@H](Cc2c[nH]c3ccccc23)NC(=O)[C@H](Cc2ccc(O)cc2)NC(=O)[C@H](CCC(=O)O)NC1=O)[C@@H](C)O [MP-144] (Ac-TS[2Nal][R8]EYWALL[S5]SAAE-NH2; staple 4-11),46.7 µM,15.6 µM,83.26%,-3.58%,> 50 µM,5.01 µM,,,,,,,,,,,,
CC(C)C[C@@H]1NC(=O)[C@H](C)NC(=O)[C@H](Cc2c[nH]c3ccccc23)NC(=O)[C@H](Cc2ccc(O)cc2)NC(=O)[C@H](CCC(=O)O)NC(=O)[C@](C)(NC(=O)[C@H](Cc2ccccc2)NC(=O)[C@H](CO)NC(=O)[C@@H](NC(=O)[C@H](CO)NC(=O)CNC(=O)[C@@H](N)CO)[C@@H](C)O)CCCCCCC=CCCC[C@@](C)(C(N)=O)NC(=O)[C@H](CC(C)C)NC1=O [MP-132],0.0459 µM,> 50 µM,1.056%,9.469%,> 50 µM,39.6 µM,,,,,,,,,,,,
CC(=O)N[C@@H](CCCCN=[N+]=[N-])C(=O)NCCC(=O)N[C@@H](CC(C)C)C(=O)N[C@H](C(=O)N[C@@H](Cc1ccccc1)C(=O)N[C@]1(C)CCCCCCC=CCCC[C@@](C)(C(=O)N[C@@H](C)C(=O)N[C@@H](C)C(=O)N[C@@H](Cc2ccccc2)C(=O)N[C@@H](C)C(=O)N[C@@H](C)C(=O)N[C@@H](Cc2ccccc2)C(N)=O)NC(=O)[C@H](CC2CCC2)NC(=O)[C@H](CCC(N)=O)NC(=O)[C@H](C)NC(=O)[C@H](Cc2c[nH]c3ccccc23)NC(=O)[C@H](Cc2ccc(O)cc2)NC(=O)[C@H](CCC(=O)O)NC1=O)[C@@H](C)O [MP-040] (Ac-[Lys(N3)][βAla]LTF[R8]EYWAQ[Cba][S5]AAFAAF-NH2; staple 6-13),,,,,,,,,P.B.,Poorly Behaved,> 50.7 µM,0.439 µM,204 A^2,Poorly Behaved,1.22 µM,> 49.8 µM,,
CC(=O)N[C@@H](CCCCN=[N+]=[N-])C(=O)NCCC(=O)N[C@@H](CC(C)C)C(=O)N[C@H](C(=O)N[C@@H](Cc1ccccc1)C(=O)N[C@]1(C)CCCCCCC=CCCC[C@@](C)(C(=O)N[C@@H](CO)C(=O)N[C@@H](C)C(=O)N[C@@H](C)C(N)=O)NC(=O)[C@H](CC2CCC2)NC(=O)[C@H](CCC(N)=O)NC(=O)[C@H](C)NC(=O)[C@H](Cc2c[nH]c3ccccc23)NC(=O)[C@H](CCC(=O)O)NC(=O)[C@H](CCC(=O)O)NC1=O)[C@@H](C)O [MP-842],,,,,,,,,,,> 50.7 µM,0.297 µM,216 A^2,,23.4 µM,> 49.8 µM,157 µM,2.25
